Legend:
[1] = biological target: NRAS G12D C118S (Homo sapiens (Human), UniProt P01111, C118S/G12D); assay: NRas G12D Surface Plasmon Resonance (SPR) binding assay; settings: Avi-tagged biotinylated NRAS G12D C118S on streptavidin chip, 25° C., 1:1 kinetic or steady-state fit
Procedure, shortened: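 Biotinylated Avi-tagged NRAS G12D C118S was captured at about 600 RU on a streptavidin chip alongside a blank reference channel. Compounds were run as 10-point 1:3 dilution series in HBS-P+ pH 7.4 with 5 mM MgCl2 and 3% DMSO, using a 2–4% DMSO solvent correction. A control compound at 10 μM was injected periodically to check protein activity.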

[2] = test system: THP-1 cells expressing G12D (NRAS G12D); assay: Inhibition of NRAS G12D-mediated phosphorylation of ERK (AlphaLISA p-ERK1/2) in THP-1 cells; type: cell-based; settings: Homo sapiens, THP-1, 2 h, 2 hours incubation, HBSS with 0% or 10% FBS, p-ERK1/2 (Thr202/Tyr204) AlphaLISA, read-out: pERK THP-1 IC50
Procedure, shortened: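 THP-1 cells expressing NRAS G12D, seeded in HBSS with 0% or 10% FBS, were exposed to test compound (1% DMSO final) for 2 h. p-ERK1/2 (Thr202/Tyr204) read by AlphaLISA SureFire Ultra. IC50 from curves normalized to no-inhibitor (100%) and 1 μM trametinib (0%) controls.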

Sequence of NRAS G12D C118S (P01111 whole entry G12D/C118S): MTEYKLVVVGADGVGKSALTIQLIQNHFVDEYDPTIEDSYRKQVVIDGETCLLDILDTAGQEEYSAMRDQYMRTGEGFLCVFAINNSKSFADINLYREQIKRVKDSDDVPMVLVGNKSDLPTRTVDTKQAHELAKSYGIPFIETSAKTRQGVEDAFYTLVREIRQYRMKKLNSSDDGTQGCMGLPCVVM

Kd [1] | IC50 [2] | Compound
15.8 nM | 477 nM | C#Cc1c(F)ccc2cc(O)cc(-c3nc(OC)c4c([C@H]5[C@@H]6CNC[C@@H]65)nn(C5CC5)c4c3F)c12 [Example 61, 4-(3-((1R,5S,6r)-3-azabicyclo[3.1.0]hexan-6-yl)-1-cyclopropyl-7-fluoro-4-methoxy-1H-pyrazolo[4,3-c]pyridin-6-yl)-5-ethynyl-6-fluoronaphthalen-2-ol]
8.29 nM | 185 nM | C#Cc1c(F)ccc2cc(O)cc(-c3nc(OCC)c4c([C@H]5[C@@H]6CNC[C@@H]65)nn(C5CC5)c4c3F)c12 [Example 63, 4-(3-((1R,5S,6r)-3-azabicyclo[3.1.0]hexan-6-yl)-1-cyclopropyl-4-ethoxy-7-fluoro-1H-pyrazolo[4,3-c]pyridin-6-yl)-5-ethynyl-6-fluoronaphthalen-2-ol]
0.594 nM | 24.4 nM | C#Cc1c(F)ccc2cc(O)cc(-c3nc(CC)c4c([C@H]5[C@@H]6CNC[C@@H]65)nn(C5CC5)c4c3F)c12 [Example 72, 4-(3-((1R,5S,6r)-3-azabicyclo[3.1.0]hexan-6-yl)-1-cyclopropyl-4-ethyl-7-fluoro-1H-pyrazolo[4,3-c]pyridin-6-yl)-5-ethynyl-6-fluoronaphthalen-2-ol]
212 nM | 1300 nM | C#Cc1c(F)ccc2cc(O)cc(-c3nc(CC(C)C)c4c([C@H]5[C@@H]6CNC[C@@H]65)nn(C5CC5)c4c3F)c12 [Example 73, 4-(3-((1R,5S,6r)-3-azabicyclo[3.1.0]hexan-6-yl)-1-cyclopropyl-7-fluoro-4-isobutyl-1H-pyrazolo[4,3-c]pyridin-6-yl)-5-ethynyl-6-fluoronaphthalen-2-ol]
0.141 nM | 9.56 nM | C#Cc1c(F)ccc2cc(O)cc(-c3nc(C(C)C)c4c([C@H]5[C@@H]6CNC[C@@H]65)nn(C5CC5)c4c3F)c12 [Example 74, 4-(3-((1R,5S,6r)-3-azabicyclo[3.1.0]hexan-6-yl)-1-cyclopropyl-7-fluoro-4-isopropyl-1H-pyrazolo[4,3-c]pyridin-6-yl)-5-ethynyl-6-fluoronaphthalen-2-ol]
28.3 nM | 547 nM | C#Cc1c(F)ccc2cc(O)cc(-c3nc(NC)c4c([C@H]5[C@@H]6CNC[C@@H]65)nn(C5CC5)c4c3F)c12 [Example 76, 4-(3-((1R,5S,6r)-3-azabicyclo[3.1.0]hexan-6-yl)-1-cyclopropyl-7-fluoro-4-(methylamino)-1H-pyrazolo[4,3-c]pyridin-6-yl)-5-ethynyl-6-fluoronaphthalen-2-ol]
17.9 nM | 258 nM | C#Cc1c(F)ccc2cc(O)cc(-c3nc(NC(C)C)c4c([C@H]5[C@@H]6CNC[C@@H]65)nn(C5CC5)c4c3F)c12 [Example 77, 4-(3-((1R,5S,6r)-3-azabicyclo[3.1.0]hexan-6-yl)-1-cyclopropyl-7-fluoro-4-(isopropylamino)-1H-pyrazolo[4,3-c]pyridin-6-yl)-5-ethynyl-6-fluoronaphthalen-2-ol]
49.5 nM | 205 nM | C#Cc1c(F)ccc2cc(O)cc(-c3nc(Nc4ccccc4)c4c([C@H]5[C@@H]6CNC[C@@H]65)nn(C5CC5)c4c3F)c12 [Example 83, 4-(3-((1R,5S,6r)-3-azabicyclo[3.1.0]hexan-6-yl)-1-cyclopropyl-7-fluoro-4-(phenylamino)-1H-pyrazolo[4,3-c]pyridin-6-yl)-5-ethynyl-6-fluoronaphthalen-2-ol]

The next lines start with the compound.

Compound | Kd [1] | IC50 [2]
C#Cc1c(F)ccc2cc(O)cc(-c3ncc4c([C@H]5[C@@H]6CNC[C@@H]65)c(C#N)n(C)c4c3F)c12 [Example 58, 3-((1R,5S,6s)-3-azabicyclo[3.1.0]hexan-6-yl)-6-(8-ethynyl-7-fluoro-3-hydroxynaphthalen-1-yl)-7-fluoro-1-methyl-1H-pyrrolo[3,2-c]pyridine-2-carbonitrile] | 300 nM | 4800 nM
C#CCn1nc([C@H]2[C@@H]3CNC[C@@H]32)c2cnc(-c3cc(O)cc4ccc(F)c(C#C)c34)c(F)c21 [Example 59, 4-(3-((1R,5S,6r)-3-azabicyclo[3.1.0]hexan-6-yl)-7-fluoro-1-(prop-2-yn-1-yl)-1H-pyrazolo[4,3-c]pyridin-6-yl)-5-ethynyl-6-fluoronaphthalen-2-ol] | 1110 nM | 3470 nM
C#Cc1c(F)ccc2cc(O)cc(-c3ncc4c(N5C[C@H]6CC[C@@H]5CN6)nn(C)c4c3F)c12 [Example 60, 4-(3-((1R,4R)-2,5-diazabicyclo[2.2.2]octan-2-yl)-7-fluoro-1-methyl-1H-pyrazolo[4,3-c]pyridin-6-yl)-5-ethynyl-6-fluoronaphthalen-2-ol] | 2550 nM | 23000 nM
C#Cc1c(F)ccc2cc(O)cc(-c3nc(OC(C)C)c4c([C@H]5[C@@H]6CNC[C@@H]65)nn(C5CC5)c4c3F)c12 [Example 62, 4-(3-((1R,5S,6r)-3-azabicyclo[3.1.0]hexan-6-yl)-1-cyclopropyl-7-fluoro-4-isopropoxy-1H-pyrazolo[4,3-c]pyridin-6-yl)-5-ethynyl-6-fluoronaphthalen-2-ol] | 18.8 nM | 115 nM
C#Cc1c(F)ccc2cc(O)cc(-c3nc(OC4CCC4)c4c([C@H]5[C@@H]6CNC[C@@H]65)nn(C5CC5)c4c3F)c12 [Example 64, 4-(3-((1R,5S,6r)-3-azabicyclo[3.1.0]hexan-6-yl)-4-cyclobutoxy-1-cyclopropyl-7-fluoro-1H-pyrazolo[4,3-c]pyridin-6-yl)-5-ethynyl-6-fluoronaphthalen-2-ol] | 24.3 nM | 480 nM
C#Cc1c(F)ccc2cc(O)cc(-c3nc(OC4CCCC4)c4c([C@H]5[C@@H]6CNC[C@@H]65)nn(C5CC5)c4c3F)c12 [Example 65, 4-(3-((1R,5S,6r)-3-azabicyclo[3.1.0]hexan-6-yl)-4-(cyclopentyloxy)-1-cyclopropyl-7-fluoro-1H-pyrazolo[4,3-c]pyridin-6-yl)-5-ethynyl-6-fluoronaphthalen-2-ol] | 125 nM | 1060 nM
C#Cc1c(F)ccc2cc(O)cc(-c3nc(OC(F)F)c4c([C@H]5[C@@H]6CNC[C@@H]65)nn(C5CC5)c4c3F)c12 [Example 66, 4-(3-((1R,5S,6r)-3-azabicyclo[3.1.0]hexan-6-yl)-1-cyclopropyl-4-(difluoromethoxy)-7-fluoro-1H-pyrazolo[4,3-c]pyridin-6-yl)-5-ethynyl-6-fluoronaphthalen-2-ol] | 114 nM | 1190 nM
C#Cc1c(F)ccc2cc(O)cc(-c3nc(OCC(F)(F)F)c4c([C@H]5[C@@H]6CNC[C@@H]65)nn(C5CC5)c4c3F)c12 [Example 67, 4-(3-((1R,5S,6r)-3-azabicyclo[3.1.0]hexan-6-yl)-1-cyclopropyl-7-fluoro-4-(2,2,2-trifluoroethoxy)-1H-pyrazolo[4,3-c]pyridin-6-yl)-5-ethynyl-6-fluoronaphthalen-2-ol] | 114 nM | 763 nM
C#Cc1c(F)ccc2cc(O)cc(-c3nc(OC4CC(F)(F)C4)c4c([C@H]5[C@@H]6CNC[C@@H]65)nn(C5CC5)c4c3F)c12 [Example 68, 4-(3-((1R,5S,6r)-3-azabicyclo[3.1.0]hexan-6-yl)-1-cyclopropyl-4-(3,3-difluorocyclobutoxy)-7-fluoro-1H-pyrazolo[4,3-c]pyridin-6-yl)-5-ethynyl-6-fluoronaphthalen-2-ol] | 566 nM | 2130 nM
C#Cc1c(F)ccc2cc(O)cc(-c3nc(OC4CNC4)c4c([C@H]5[C@@H]6CNC[C@@H]65)nn(C5CC5)c4c3F)c12 [Example 69, 4-(4-(azetidin-3-yloxy)-3-((1R,5S,6r)-3-azabicyclo[3.1.0]hexan-6-yl)-1-cyclopropyl-7-fluoro-1H-pyrazolo[4,3-c]pyridin-6-yl)-5-ethynyl-6-fluoronaphthalen-2-ol] | 1790 nM | > 10000 nM
C#Cc1c(F)ccc2cc(O)cc(-c3nc(OC4CC4)c4c([C@H]5[C@@H]6CNC[C@@H]65)nn(C5CC5)c4c3F)c12 [Example 70, 4-(3-((1R,5S,6r)-3-azabicyclo[3.1.0]hexan-6-yl)-4-cyclopropoxy-1-cyclopropyl-7-fluoro-1H-pyrazolo[4,3-c]pyridin-6-yl)-5-ethynyl-6-fluoronaphthalen-2-ol] | 33.3 nM | 169 nM
C#Cc1c(F)ccc2cc(O)cc(-c3nc(N(C)C(C)C)c4c([C@H]5[C@@H]6CNC[C@@H]65)nn(C5CC5)c4c3F)c12 [Example 75, 4-(3-((1R,5S,6r)-3-azabicyclo[3.1.0]hexan-6-yl)-1-cyclopropyl-7-fluoro-4-(isopropyl(methyl)amino)-1H-pyrazolo[4,3-c]pyridin-6-yl)-5-ethynyl-6-fluoronaphthalen-2-ol] | 25 nM | 248 nM
C#Cc1c(F)ccc2cc(O)cc(-c3ncc4c(N5CC6CCC(C5)N6)cn(C5CC5)c4c3F)c12 [Example 85, 4-(3-(3,8-diazabicyclo[3.2.1]octan-3-yl)-1-cyclopropyl-7-fluoro-1H-pyrrolo[3,2-c]pyridin-6-yl)-5-ethynyl-6-fluoronaphthalen-2-ol] | 336 nM | 1710 nM
C#Cc1c(F)ccc2cc(O)cc(-c3ncc4c(N5C[C@@H]6CC[C@H]5CN6)cn(C5CC5)c4c3F)c12 [Example 86, 4-(3-((1S,4S)-2,5-diazabicyclo[2.2.2]octan-2-yl)-1-cyclopropyl-7-fluoro-1H-pyrrolo[3,2-c]pyridin-6-yl)-5-ethynyl-6-fluoronaphthalen-2-ol] | 151 nM | 767 nM

From patent US20260022118A1, “HETEROCYCLIC COMPOUNDS AS NRAS INHIBITORS” (Board of Regents, The University of Texas System, priority 2023, published 2026)
